Patent US9370189B2, “Controlling Pseudomonas aeruginosa persister cells with GM-CSF” (priority 2012, dated 2016)

What was measured:
P. aeruginosa PDO300 = experiment: Effect of GM-CSF on planktonic PDO300 cells (total viable cells and persisters) at exponential phase, alone and with antibiotic; type: cell-based, Pseudomonas aeruginosa; conditions: for % change in avg. CFU/mL by GM-CSF (compared to GM-CSF free control) With 50 μg/mL Cip / % change in avg. CFU/mL by GM-CSF (compared to GM-CSF free control) With 50 μg/mL Tet / % change in avg. CFU/mL by GM-CSF (compared to GM-CSF free control) With 50 μg/mL Tob / % change in avg. CFU/mL by GM-CSF (compared to GM-CSF free control) With 200 μg/mL Gen: PDO300 exponential phase, 0.17 pM GM-CSF; for % change in avg. CFU/ml after adding factor + CIP / % change in avg. CFU/ml after adding factor + TET / % change in avg. CFU/ml after adding factor + TOB / % change in avg. CFU/ml after adding factor + GEN / average CFU/ml of persisters reduced by / average CFU/ml of total viable cells reduced by: planktonic PDO300; for % change in avg. CFU/ml after adding factor + CIP: 2.43 pg/mL GM-CSF with 50 μg/mL ciprofloxacin; for % change in avg. CFU/ml after adding factor + TET: 2.43 pg/mL GM-CSF with 50 μg/mL tetracycline; for % change in avg. CFU/ml after adding factor + TOB: 2.43 pg/mL GM-CSF with 50 μg/mL tobramycin; for % change in avg. CFU/ml after adding factor + GEN: 2.43 pg/mL GM-CSF with 200 μg/ml gentamicin; for average CFU/ml of persisters reduced by / average CFU/ml of total viable cells reduced by: reduction
Procedure: This Example describes the treatment of planktonic P. aeruginosa PAO1, PDO300 and Escherichia coli K12, with GM-CSF introduced directly or together with an antibiotic to test the synergy. All experiments were conducted with cells harvested from exponential phase subcultures with an optical density at 600 nm (OD600) of 0.3 to 0.4.
In brief, after preparing an overnight culture of the tested strain in 25 ml LB medium, a subculture was prepared with an OD600 of 0.01 in 50 mL LB medium. The subculture was incubated at 37° C. with shaking at 200 rpm for 3-4 h, till an OD600 of 0.3 to 0.4 was reached. The exponential phase subculture was then divided equally into two centrifuge tubes, each containing 25 mL of the subculture. The subcultures were washed twice with 0.85% NaCl buffer by vortexing and then centrifuging at 4° C., 8000 rpm for 10 min each time. The washed subcultures/cells were resuspended in 25 mL 0.85% NaCl buffer and vortexed gently for 1 min. One of the tubes of subculture was selected for isolation of persisters by adding 200 μg/mL ciprofloxacin (for PAO1 and PDO300 strains) or 100 μg/mL ampicillin (for E. coli K12 strain). After adding the antibiotic for persister isolation, the subculture was incubated at 37° C., shaking at 200 rpm for 3.5 h.
To test the effects of GM-CSF on viability of persisters, the second tube was used to quantify the total number of viable cells and 1 mL of the washed persister cells was divided into 6 microcentrifuge tubes; 3 were control and the other 3 were GM-CSF treatment samples. In the treatment samples, GM-CSF was added to a concentration of 2.43 pg/mL (or 0.17 pM), the same as found in healthy human bodies. The control samples were supplemented with the same concentration of PBS and BSA as present in 2.43 pg/mL (or 0.17 pM) GM-CSF samples.
After incubating at 37° C. for 1 h with shaking at 200 rpm, the samples were plated on LB agar plates (15 g/L bacto agar) using drop plate method. The agar plates were then incubated for 24 h at 37° C. to count the total number of persister cells and understand the effect of 0.17 pM GM-CSF on the viability of persister cells.
To test the synergy with antibiotics, the above samples were then incubated at 37° C. for 3.5 h with shaking at 200 rpm after adding the selected antibiotic. After 3.5 h, the CFU of samples was quantified in the same way to understand if there is any synergy between GM-CSF and antibiotic. Similar treatments were performed on the total population in exponential phase as well. Apart from exponential phase, the synergistic effects of GM-CSF with antibiotics on total viable cells and persisters were also evaluated at stationary phase but PBS buffer (pH=7.4) was used in the experiments instead of 0.85% NaCl solution. Moreover, the 1 h and 3.5 h treatments were performed as co-treatments.

[1] = test system: whole cells of P. aeruginosa; experiment: GM-CSF binding assay to bacterial whole cells (slot blot immunoblotting); set-up: species or system Pseudomonas aeruginosa; conditions: PBS, room temperature, 2 h, anti-rhGM-CSF immunoblot (FIG. 21)
Procedure: This Example describes experiments conducted to determine the capability of GM-CSF to bind to whole cells of P. aeruginosa and E. coli. In brief, bacteria harvested at stationary phases of growth were washed with PBS and adjusted to OD600 of 0.4 with PBS to ensure that an equal amount of cells was used for all GF-CSF binding tests. Suspensions of bacteria (10^6 CFU) were then incubated with and without different amount of recombinant human GM-CSF (rhGM-CSF, R&D systems) in a 40 μL volume at room temperature for 2 hours. After incubation, the cell suspension was centrifuged to separate supernatant (comprising buffer and unbound GM-CSF) and pellet (comprising cell and bound GM-CSF, if any), followed by the addition of 10 mM EDTA and boiling for 30 minutes to inactivate bacterial alkaline phosphatase activity. As control, PBS buffer with GM-CSF were processed in the similar manner. All the samples were then applied to Slot Blot (BioRad) for immunoblotting experiments. Anti-rhGMCSF developed in mice (Human GM-CSF MAb, Mouse IgG1, R&D system) was used as first antibody; Alkaline Phosphatase conjugated with Anti-mouse IgG was used to detect the binding of GM-CSF with BCIP/NBT (Promega) as substrates.

[2] = 2.43 pg/ml GM-CSF in the presence of 50 μg/mL ciprofloxacin
[3] = 2.43 pg/ml GM-CSF in the presence of 50 μg/mL tetracycline
[4] = 2.43 pg/ml GM-CSF in the presence of 50 μg/mL tobramycin
[5] = 2.43 pg/ml GM-CSF in the presence of 200 μg/mL gentamicin

GM-CSF: granulocyte macrophage-colony stimulating factor, a cytokine secreted by macrophages; recombinant human GM-CSF (R&D systems) in binding tests
% change in avg. CFU/mL by GM-CSF (compared to GM-CSF free control) With 50 μg/mL Cip (P. aeruginosa PDO300; persisters): −22.2%
% change in avg. CFU/mL by GM-CSF (compared to GM-CSF free control) With 50 μg/mL Tet (P. aeruginosa PDO300; persisters): −46.2%
% change in avg. CFU/mL by GM-CSF (compared to GM-CSF free control) With 50 μg/mL Tob (P. aeruginosa PDO300; persisters): −80.0%
% change in avg. CFU/mL by GM-CSF (compared to GM-CSF free control) With 200 μg/mL Gen (P. aeruginosa PDO300; persisters): −50.0%
% change in avg. CFU/ml after adding factor + CIP (P. aeruginosa PDO300; persisters): −27.78%
% change in avg. CFU/ml after adding factor + TET (P. aeruginosa PDO300; persisters): −32.69%
% change in avg. CFU/ml after adding factor + TOB (P. aeruginosa PDO300; persisters): −75.86%
% change in avg. CFU/ml after adding factor + GEN (P. aeruginosa PDO300; persisters): −50.94%
average CFU/ml of persisters reduced by (P. aeruginosa PDO300; [2]): 27.78%
average CFU/ml of total viable cells reduced by (P. aeruginosa PDO300; [2]): 25.00%
average CFU/ml of persisters reduced by (P. aeruginosa PDO300; [3]): 32.69%
average CFU/ml of total viable cells reduced by (P. aeruginosa PDO300; [3]): 12.50%
average CFU/ml of persisters reduced by (P. aeruginosa PDO300; [4]): 75.86%
average CFU/ml of total viable cells reduced by (P. aeruginosa PDO300; [4]): 8.33%
average CFU/ml of persisters reduced by (P. aeruginosa PDO300; [5]): 50.94%
average CFU/ml of total viable cells reduced by (P. aeruginosa PDO300; [5]): 20.00%
% change in avg. CFU/mL by GM-CSF (compared to GM-CSF free control) With 50 μg/mL Cip (P. aeruginosa PDO300; total viable cells): −25.0%
% change in avg. CFU/mL by GM-CSF (compared to GM-CSF free control) With 50 μg/mL Tet (P. aeruginosa PDO300; total viable cells): −12.5%
% change in avg. CFU/mL by GM-CSF (compared to GM-CSF free control) With 50 μg/mL Tob (P. aeruginosa PDO300; total viable cells): −8.3%
% change in avg. CFU/mL by GM-CSF (compared to GM-CSF free control) With 200 μg/mL Gen (P. aeruginosa PDO300; total viable cells): −20.0%
% change in avg. CFU/ml after adding factor + CIP (P. aeruginosa PDO300; total viable cells): −25.00%
% change in avg. CFU/ml after adding factor + TET (P. aeruginosa PDO300; total viable cells): −12.50%
% change in avg. CFU/ml after adding factor + TOB (P. aeruginosa PDO300; total viable cells): −8.33%
% change in avg. CFU/ml after adding factor + GEN (P. aeruginosa PDO300; total viable cells): −20.00%
binding to whole cells [1]: does bind
